{
  "source": "patent US20220220041A1",
  "about": "“USE OF UREA AS AN ANTIMICROBIAL ADDITIVE IN AN AQUEOUS SUSPENSION” (Omya International AG, priority 2019, published 2022)",
  "key": {"Pseudomonas putida": {"test_system": "Pseudomonas putida", "test": "Example 3 preservation efficacy: H60 slurry with industrial grade urea solution, P. putida inoculum, TVC", "format": "cell-based", "conditions": "industrial grade urea 5.5%, calcium carbonate 69%, water 25.5% w/w, 30° C.", "protocol": "(§1) All quoted bacterial counts (Total viable counts (TVC) values), unless otherwise indicated, are given in cfu/ml and determined after at least 2 days following plate-out and incubation at 30° C. and in accordance with the counting method described in “Bestimmung von aerobe mesophilen Keimen”, Schweizerisches Lebensmittelbuch, chapter 56, section 7.01, edition of 1985, revised version of 1988.\n(§2) Unless otherwise stated, per tryptic soy agar plate (TSA, prepared using BD 236950) 0.1 ml of a solution or suspension is plated. Counts from 10000 cfu/ml to 99999 cfu/ml are reported as >1E4 cfu/ml. Counts from 100000 cfu/ml to 999999 cfu/ml are reported as >1E5 cfu/ml. Counts above 1000000 cfu/ml are reported as >1E6 cfu/ml.\nFor the preparation of inoculum with a single bacterial species (for example Escherichia coli (DSMZ 46295) or Pseudomonas putida), bacteria are spread onto Tryptic soy broth agar (BD, 236950) by dilution streaking followed by incubation at 30° C. for at least 24 h until colonies appear. Overnight cultures are generated by inoculation of 3 ml Tryptic soy broth (Fluka 22092) with a single colony followed incubation with agitation at […] at 30° C. for 24 h.\n(§3) 50 g sterile calcium carbonate slurry (H60) with a solid content of 77.3 wt.-%, based on the total weight of the H60 slurry is supplemented with industrial grade 50% (w/w) urea solution (Yara Canda Inc.) or water to different final concentrations. The industrial grade contained natural resident (i.e. bacteria in a non-growing state) bacteria. The bacterial of the industrial urea burden is 5 cfu/3 ml as determined by TVC. The species are identified by characterizing the grown colonies from the TVC by 16 S RNA sequencing, known to the person skilled in the art.\n(§4) The samples are further artificially inoculated with 1 ml non-sterile calcium carbonate slurry (H60), 1 ml non-sterile calcium carbonate slurry (H90), 0.02 ml overnight culture of Escherichia coli (DSMZ 46295) and 0.02 ml overnight culture Pseudomonas putida. The control sample are not inoculated. […]"}, "rats": {"test_system": "rats", "conditions": "cited from earlier work"}, "[1]": {"test_system": "non-sterile calcium carbonate slurry (H60), environmental bacteria", "test": "Example 2 preservation efficacy: H60 slurry with 61 wt.-% urea solution, non-sterile H60 inoculum, TVC", "format": "cell-based", "conditions": "30° C.", "protocol": "as §1, §2\n(§5) Non-sterile slurries (H60 or H90) contain contamination with environmental bacteria at a TVC>100000 cfu/ml. The contamination originates spontaneously and a bacterial burden of at least>100000 cfu/ml is confirmed prior use as inoculum by TVC. The following bacterial species are known to occur, as identified by 16S RNA sequencing or MALDI-TOF-MS analysis: Rhizobium radiobacter, Brevundimonas intermedia, Brevundimonas diminiuta, Sphingomonas sp., Pseudomonas stutzeri, Pseudomonas sp., Comomonas aquatic.\n50 g sterile slurry H60 with a solid content of 76.5 wt.-%, based on the total weight of the H60 slurry is supplemented with different amounts of 61 wt.-% urea solution or water. The samples are then inoculated with 1 ml non-sterile calcium carbonate slurry (H60), 1 ml non-sterile calcium carbonate slurry (H90), 0.02 ml overnight culture of Escherichia coli (DSMZ 46295) and 0.02 ml overnight culture of Pseudomonas putida. The control samples are not inoculated. Samples are incubated at 30° C. and the TVC and pH are determined at various time points (0 day, 1 day, 4, days, 8 days, 9 days and/or 13 days)."}, "[2]": {"test": "pH measurement of the suspension", "format": "physicochemical", "conditions": "30° C.; for pH Day 8: Table 2; for pH Day 4: Table 3; for pH Day 11: Table 5; for pH Day 16: industrial grade urea 5.5%, calcium carbonate 69%, water 25.5% w/w", "protocol": "The pH of a suspension is measured at 25° C. using a Mettler Toledo Seven Easy pH meter and a Mettler Toledo InLab® Expert Pro pH electrode. A three point calibration (according to the segment method) of the instrument is first made using commercially available buffer solutions having pH values of 4, 7 and 10 at 20° C. (from Aldrich). The reported pH values are the endpoint values detected by the instrument (the endpoint is when the measured signal differs by less than 0.1 mV from the average over the last 6 s)."}, "[3]": {"test_system": "non-sterile calcium carbonate slurry (H90), environmental bacteria", "test": "Example 3 preservation efficacy: H60 slurry with industrial grade urea solution, non-sterile H90 inoculum, TVC", "format": "cell-based", "conditions": "industrial grade urea 5.5%, calcium carbonate 69%, water 25.5% w/w, 30° C.", "protocol": "as §1, §2, §5, §3, §4"}, "[4]": {"conditions": "Table 2, urea 2.75%, calcium carbonate 73.1%, water 24.15% w/w"}, "[5]": {"conditions": "Table 2, urea 7.6%, calcium carbonate 67.1%, water 25.3% w/w"}, "[6]": {"conditions": "Table 3, urea 0.65%, calcium carbonate 75.7%, water 23.65% w/w"}, "[7]": {"conditions": "Table 3, urea 2.75%, calcium carbonate 73.1%, water 24.15% w/w"}, "[8]": {"conditions": "urea 2.75%, calcium carbonate 73.1%, water 24.15% w/w, inoculum none"}},
  "data": [
    {"smiles": "NC(N)=O", "note": "[urea]", "values": [
      {"measurement": "TVC cfu/ml Day 1", "setting": "Pseudomonas putida", "result": "<100", "unit": "cfu/ml"},
      {"measurement": "TVC cfu/ml Day 4", "setting": "Pseudomonas putida", "result": "<100", "unit": "cfu/ml"},
      {"measurement": "TVC cfu/ml Day 8", "setting": "Pseudomonas putida", "result": "<100", "unit": "cfu/ml"},
      {"measurement": "TVC cfu/ml Day 11", "setting": "Pseudomonas putida", "result": "<100", "unit": "cfu/ml"},
      {"measurement": "TVC cfu/ml Day 13", "setting": "Pseudomonas putida", "result": "<100", "unit": "cfu/ml"},
      {"measurement": "LD50", "setting": "rats", "result": 15, "unit": "g/kg"},
      {"measurement": "TVC cfu/ml Day 4", "setting": "[1]; [4]", "result": "<100", "unit": "cfu/ml"},
      {"measurement": "TVC cfu/ml Day 8", "setting": "[1]; [4]", "result": "<100", "unit": "cfu/ml"},
      {"measurement": "TVC cfu/ml Day 13", "setting": "[1]; [4]", "result": "<100", "unit": "cfu/ml"},
      {"measurement": "TVC cfu/ml Day 1", "setting": "[1]; [5]", "result": "<100", "unit": "cfu/ml"},
      {"measurement": "TVC cfu/ml Day 4", "setting": "[1]; [5]", "result": "<100", "unit": "cfu/ml"},
      {"measurement": "TVC cfu/ml Day 8", "setting": "[1]; [5]", "result": "<100", "unit": "cfu/ml"},
      {"measurement": "TVC cfu/ml Day 13", "setting": "[1]; [5]", "result": "<100", "unit": "cfu/ml"},
      {"measurement": "TVC cfu/ml Day 1", "setting": "[1]; [6]", "result": ">1E5", "unit": "cfu/ml"},
      {"measurement": "TVC cfu/ml Day 4", "setting": "[1]; [6]", "result": ">1E5", "unit": "cfu/ml"},
      {"measurement": "TVC cfu/ml Day 4", "setting": "[1]; [7]", "result": 100, "unit": "cfu/ml"},
      {"measurement": "TVC cfu/ml Day 9", "setting": "[1]; [7]", "result": "<100", "unit": "cfu/ml"},
      {"measurement": "pH Day 8", "setting": "[2]; [8]", "result": 9.16},
      {"measurement": "pH Day 8", "setting": "[2]; urea 7.6%, calcium carbonate 67.1%, water 25.3% w/w, inoculum none", "result": 9.25},
      {"measurement": "pH Day 4", "setting": "[2]; urea 0.65%, calcium carbonate 75.7%, water 23.65% w/w, inoculum none", "result": 9.06},
      {"measurement": "pH Day 4", "setting": "[2]; urea 1.28%, calcium carbonate 74.9%, water 23.82% w/w, inoculum none", "result": 9.05},
      {"measurement": "pH Day 4", "setting": "[2]; [8]", "result": 9.11},
      {"measurement": "pH Day 11", "setting": "[2]; urea 0.40%, calcium carbonate 75.61%, water 23.99% w/w, inoculum H60", "result": 9.05},
      {"measurement": "pH Day 11", "setting": "[2]; urea 1.10%, calcium carbonate 75.48%, water 23.42% w/w, inoculum H60", "result": 9.25},
      {"measurement": "pH Day 11", "setting": "[2]; urea 2.80%, calcium carbonate 75.21%, water 21.98% w/w, inoculum H60", "result": 9.10},
      {"measurement": "pH Day 16", "setting": "[2]; inoculum E. coli", "result": 9.02},
      {"measurement": "pH Day 16", "setting": "[2]; inoculum H60", "result": 9.00},
      {"measurement": "pH Day 16", "setting": "[2]; inoculum H90", "result": 8.97},
      {"measurement": "pH Day 16", "setting": "[2]; inoculum P. putida", "result": 9.04},
      {"measurement": "pH Day 16", "setting": "[2]; inoculum none", "result": 9.02},
      {"measurement": "TVC cfu/ml Day 1", "setting": "[3]", "result": ">1E4", "unit": "cfu/ml"},
      {"measurement": "TVC cfu/ml Day 4", "setting": "[3]", "result": 300, "unit": "cfu/ml"},
      {"measurement": "TVC cfu/ml Day 8", "setting": "[3]", "result": "<100", "unit": "cfu/ml"},
      {"measurement": "TVC cfu/ml Day 11", "setting": "[3]", "result": "<100", "unit": "cfu/ml"},
      {"measurement": "TVC cfu/ml Day 13", "setting": "[3]", "result": "<100", "unit": "cfu/ml"}
    ]}
  ]
}
